Results reported in patent US6077525A, “Use of conjugated linoleic acids” (The George Washington University, priority 1998, dated 2000).
Read-outs that look alike come from different tables or passages of the source.

Columns and labels:
[1] = tested on: human platelet thromboxane production (cyclooxygenase pathway); assay: Human platelet thromboxane (TXB2) formation from [14C]-arachidonic acid, TLC; type: cell-based; conditions: for TXB2 formation (FIG. 2): CLA mix 3 and 10 μM, 9,11-18:2 30 and 60 μM, 10,12-18:2 3 and 10 μM, with ionophore A23187; for inhibitory effectiveness on platelet TXB2 formation, CLA mix and pure isomers compared: CLA mix vs pure 9,11- and 10,12-18:2; for IC50: Platelet, read-out: Inhibitory Potency (I50); for potency as thromboxane inhibitor relative to non-hydroxylated parent: 13-HODE vs 9,11-18:2
Experimental: (§1) Human platelets were isolated from donors according to previously established procedures (13) and resuspended in Krebs-Henseleit buffer (pH 7.4) at a concentration of 3×10^8 platelets/ml. The platelets (0.5 ml) were placed in a 37° C. water bath for several minutes and then treated with either vehicle (ethanol) or various concentrations of the fatty acid to be tested for 2 min. Next, 10 μM (final concentration) [^14 C]-arachidonic acid was added. In some experiments, 20 μM calcium ionophore A23187 was added about 5 sec. prior to the addition of the arachidonic acid substrate. Ten minutes after the addition of arachidonic acid, the reaction was terminated with 10% formic acid and the products extracted with chloroform-methanol. Product separation and analysis by thin layer chromatography (TLC) was carried out as previously described using unlabeled arachidonic acid, 15-HETE and thromboxane B2 as standards (11). The various radioactive product and unreacted substrate bands were visualized by autoradiography and quantitated either by scraping the bands from the TLC plate and counting the samples in a liquid scintillation counter or by determining the relative band intensities using a Personal Densitometer SI (Molecular Dynamics, Sunnyvale, Calif.) with ImageQuaNT v4.2 software).
To obtain the results shown in FIG. 2, the human platelets were pretreated with the various concentrations of CLA isomers followed by the addition of calcium ionophore A23187 and [^14 C]-arachidonic acid. Products were isolated, separated by thin layer chromatography as described above. […] The identities of the bands in decreasing order of Rf are as follows: AA-unreacted arachidonic acid, 12-HETE-12-hydroxyeicosatetraenoic acid (a platelet 12-lipoxygenase metabolite), HHT-12-hydroxyheptadecatrienoic acid, TXB2 -thromboxane B2, the latter two products are cyclooxygenase metabolites, origin-sample application point.
The data shown were obtained by determining the effects of various concentrations of CLA isomers on platelet thromboxane B2 production. […] [^14 C]-thromboxane B2 production by fatty acid-treated platelets relative to vehicle-treated platelets was determined and expressed as % control. Symbols used for various fatty acids: ΔΔ, CLA mix .box-solid.-.box-solid., 10,12-18:2, .smallcircle.-.smallcircle., 9,11-18:2, *-*, 13-HODE, .gradient.-.gradient., 9-HODE.

[2] = tested on: 12-lipoxygenase (human platelet 12-HETE formation); assay: Human platelet 12-HETE formation from [14C]-arachidonic acid, TLC; type: cell-based; conditions: CLA mix 3 and 10 μM; 9,11-18:2 30 and 60 μM; 10,12-18:2 3 and 10 μM; with ionophore A23187
Experimental: as §1, with “Ten minutes after the addition of arachidonic acid, the reaction was terminated with 10% formic acid and the products extracted with chloroform-methanol.” left out, “software). To obtain the results shown in FIG. 2, the human platelets were pretreated with the various concentrations of CLA isomers followed by the addition of calcium ionophore A23187 and [^14 C]-arachidonic acid. […]” for “software).”

[3] = human platelets, exogenous arachidonic acid, calcium ionophore A23187, mean ± S.E.M., 6-11 donors

Row | Structure (SMILES) | TXB2 formation (FIG. 2) [1] | inhibitory effectiveness on platelet TXB2 formation, CLA mix and pure isomers compared [1] | IC50 [1, 3] [µM] | 12-HETE production (FIG. 2) [2] | decrease of inhibitory effectiveness relative to 10,12-18:2 ([1]; 9-HODE vs 10,12-18:2) | potency as thromboxane inhibitor relative to non-hydroxylated parent ([1]; 9-HODE vs 10,12-18:2) | enhancement of inhibitory potency relative to the non-hydroxylated analog ([1]; 13-HODE vs 9,11 isomer) | IC50 ([1]; Homo sapiens) [µM]
1 | CCCCCC/C=C/C=C\CCCCCCCC(=O)O [9,11-18:2, 9,11-octadecadienoic acid] | TXB2 was inhibited | approximately the same | 16 ± 1.8 | no effect on the 12-HETE production | – | – | – | –
2 | CCCCC/C=C\C=C\C(O)CCCCCCCC(=O)O (stereo not drawn) [9-HODE] | – | – | 34 ± 6.5 | – | more than two | less potent than the corresponding non-hydroxylated parent 10,12-18:2 | – | –
3 | CCCCC/C=C\C=C\CCCCCCCCC(=O)O [10,12-18:2, 10,12-octadecadienoic acid] | TXB2 was inhibited | approximately the same | 13 ± 4.1 | no effect on the 12-HETE production | – | – | – | –
4 | CCCCC[C@H](O)/C=C/C=C\CCCCCCCC(=O)O [13-HODE] | – | – | 3 ± 0.7 | – | – | more potent as a thromboxane inhibitor than the parent 9,11-18:2 | about five | –
5 | CCCCCCCC/C=C\CCCCCCCC(=O)O [Oleic acid] | – | – | – | – | – | – | – | > 60
